Reference: patent US9181187B2, “Therapeutic agent for urinary excretion disorder” (ONO PHARMACEUTICAL CO., LTD., priority 2007, dated 2015)

Tests used:
mouse EP1 receptor = mouse EP1 receptor (Mus musculus (Mouse), UniProt P35375); assay: Measurement of EP1 Antagonist Activity (inhibition of PGE2-induced increase in intracellular calcium); type: cell-based; conditions: cells expressing mouse EP1 receptor; increase in intracellular calcium induced by PGE2 (100 nM)
Method: The cells expressing mouse EP1 receptor were seeded at 10^4 cells/well in 96-well plates and cultured for 2 days with 10% Fetal Bovine Serum (FBS)/alpha Modified Eagle Medium (αMEM) in the incubator (37° C., 5% CO2). The cells were washed with phosphate buffer, and load buffer (10% FBS/αMEM containing Fura2/AM (5 μM), indomethacin (20 μM) and probenecid (2.5 mM)) was then added to each well and cells were left standing for 1 hour. Load buffer of each well was discarded and assay buffer (Hank's Balanced Salt Solution (HBSS) containing indomethacin (2.5 mM), probenecid (2.5 mM), HEPES-NaOH (10 mM) and 0.1% (w/v) Bovine Serum Albumin (BSA)) was added to each well and plates were left at room temperature in a dark room for 1 hour. Afterwards, compounds of the present invention (10 μL) or PGE2 (10 μL) prepared with assay buffer was added to each well and intracellular calcium concentrations were measured using a Fluorescence Drug Screening System (FDSS-4000, Hamamatsu Photonics K.K.). Changes in ratio of fluorescent intensity at 500 nm in cells exposed to alternating 2 excitation wavelengths was monitored as changes in intracellular calcium concentrations.
IC50 values were calculated based on the response inhibition rate of increase in intracellular calcium concentrations induced by PGE2 (100 nM) and was used as an index of EP1 antagonistic activity.

male cynomolgus monkeys = assay: Animal model of dysuria induced by intravesical infusion of ATP (singlecystometry); type: in vivo, cynomolgus monkey; conditions: ATP solution intravesical, compound A 0.1 mg/kg subcutaneous
Method: After administration of ketamine hydrochloride anesthesia (15 to 20 mg/kg), male cynomolgus monkeys (11 years, 3 male (symbol “∘” in the FIG. 1 and FIG. 2 represents individual one.)) were fixed onto a stereotaxic operating table. The top of the bladder catheter was connected to a pressure transducer via a three-way stopcock, and intravesical pressure was recorded using a distortion amplifier and a recorder. The other end of the three-way stopcock were connected to a syringe for intravesical infusion to which an infusion pump was connected and a extension tube which satisfied physiological saline to remove residual urine from bladder.
The physiological saline was infused into the bladder at an infusion rate of 1.5 to 7.0 mL/min, and immediately after completion of voiding, the intravesical infusion was terminated and residual urine was removed (hereinafter, the above procedures is assumed singlecystometry.) and the procedures were repeated. […] Urinary flow rate (voided volume per voiding time (mL/sec)) and residual urine rate (residual urine volume per voided volume (%)) were calculated for each of the singlecystometry before ATP perfusion, after ATP perfusion and after ATP perfusion conducted after administration of the compound A. The results are shown in FIG. 1 and FIG. 2.

Chain of mouse EP1 receptor (P35375 whole entry): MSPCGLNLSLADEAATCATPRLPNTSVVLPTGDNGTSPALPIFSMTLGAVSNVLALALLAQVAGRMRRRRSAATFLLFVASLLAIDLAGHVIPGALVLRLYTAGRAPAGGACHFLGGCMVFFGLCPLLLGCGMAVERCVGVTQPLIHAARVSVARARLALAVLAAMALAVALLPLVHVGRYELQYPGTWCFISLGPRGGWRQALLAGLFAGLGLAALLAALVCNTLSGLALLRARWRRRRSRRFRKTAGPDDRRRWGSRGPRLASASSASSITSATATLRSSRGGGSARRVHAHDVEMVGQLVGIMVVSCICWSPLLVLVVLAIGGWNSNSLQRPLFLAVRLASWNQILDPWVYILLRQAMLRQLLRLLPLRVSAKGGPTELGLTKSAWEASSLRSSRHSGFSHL

SMILES | IC50 (mouse EP1 receptor) [nM] | Urinary flow rate (voided volume per voiding time) (male cynomolgus monkeys; FIG. 1) | Residual urine rate (residual urine volume per voided volume) (male cynomolgus monkeys; FIG. 2)
Cc1csc(S(=O)(=O)N(c2cc(C)c(C)cc2OCc2ccc(-c3noc(=O)[nH]3)cc2)C(C)C)n1 [Compound L, N-[4,5-dimethyl-2-[4-(5-oxo-1,2,4-oxadiazol-3-yl)phenylmethyloxy]phenyl]-N-isopropyl-(4-methyl-2-thiazolyl)sulfonylamide] | 7.1 |  | 
Cc1csc(S(=O)(=O)N(CC(C)C)c2ccc(C(F)(F)F)cc2OCc2ccc(C=CC(=O)O)cc2)n1 [Compound G, 4-[2-[N-isobutyl-N-(4-methyl-2-thiazolylsulfonyl)amino]-5-trifluoromethylphenoxymethyl]cinnamic acid] | 25 |  | 
Cc1cc(OCc2ccc(C=CC(=O)O)cc2C)c(N(CC(C)C)S(=O)(=O)c2cccnc2)cc1C [Compound I, 3-methyl-4-[2-[N-isobutyl-N-(3-pyridylsulfonyl)amino]-4,5-dimethylphenoxymethyl]cinnamic acid] | 9.2 |  | 
Cc1ccc(S(=O)(=O)N(CC(C)C)c2cc3c(cc2OCc2ccc(C=CC(=O)O)cc2)CCC3)o1 [Compound E, 4-[6-[N-isobutyl-N-(5-methyl-2-furylsulfonyl)amino]indan-5-yloxymethyl]cinnamic acid] | 21 |  | 

Second part, led by results:

IC50 (mouse EP1 receptor) [nM] | SMILES | Urinary flow rate (voided volume per voiding time) (male cynomolgus monkeys; FIG. 1) | Residual urine rate (residual urine volume per voided volume) (male cynomolgus monkeys; FIG. 2)
4.9 | Cc1csc(S(=O)(=O)N(c2cc(C)c(Cl)cc2OCc2ccc(-c3nnn[nH]3)cc2)C(C)C)n1 [Compound J, N-[4-chloro-5-methyl-2-[4-(5-tetrazolyl)phenylmethyloxy]phenyl]-N-isopropyl-(4-methyl-2-thiazolyl)sulfonylamide] |  | 
3.7 | Cc1cc(OCc2ccc(-c3nnn[nH]3)cc2Cl)c(N(C(C)C)S(=O)(=O)c2cccnc2)cc1C [Compound K, N-[4,5-dimethyl-2-[2-chloro-4-(5-tetrazolyl)phenylmethyloxy]phenyl]-N-isopropyl-3-pyridylsulfonylamide] |  | 
6.9 | Cc1cc(C(=O)O)ccc1COc1cc2c(cc1N(CC(C)C)S(=O)(=O)c1nccs1)CCC2 [Compound A, 3-methyl-4-[6-[N-isobutyl-N-(2-thiazolylsulfonyl)amino]indan-5-yloxymethyl]benzoic acid] | recovered the urinary flow rate decreased by ATP | decreased the residual urine rate
